In PMC6017366, “Characterization of Two VAO-Type Flavoprotein Oxidases from Myceliophthora thermophila” (Molecules : A Journal of Synthetic Chemistry and Natural …, 2018):

Assays:
MtVAO713 = target: T1, MtVAO713 (Thermothelomyces thermophilus, UniProt G2QMS8); assay: GC/MS of conversion to 12-ketooleic acid; type: biochemical; settings: 5 mM ricinoleic acid, 8 µM enzyme, 16 h; oxygen as electron acceptor; 50 mM Tris/Cl pH 8.0, 10% DMSO, 30 or 37 °C; very poor substrate
T1 construct: gene MYCTH_2309690; mature secreted protein, signal peptide (first 26 residues) removed; homologous expression in M. thermophila C1; monocovalent FAD (His159); N-glycosylated at Asn103 and Asn131; about 60 kDa on SDS-PAGE, 53 kDa by gel filtration
T1 sequence (G2QMS8 entry or part of it): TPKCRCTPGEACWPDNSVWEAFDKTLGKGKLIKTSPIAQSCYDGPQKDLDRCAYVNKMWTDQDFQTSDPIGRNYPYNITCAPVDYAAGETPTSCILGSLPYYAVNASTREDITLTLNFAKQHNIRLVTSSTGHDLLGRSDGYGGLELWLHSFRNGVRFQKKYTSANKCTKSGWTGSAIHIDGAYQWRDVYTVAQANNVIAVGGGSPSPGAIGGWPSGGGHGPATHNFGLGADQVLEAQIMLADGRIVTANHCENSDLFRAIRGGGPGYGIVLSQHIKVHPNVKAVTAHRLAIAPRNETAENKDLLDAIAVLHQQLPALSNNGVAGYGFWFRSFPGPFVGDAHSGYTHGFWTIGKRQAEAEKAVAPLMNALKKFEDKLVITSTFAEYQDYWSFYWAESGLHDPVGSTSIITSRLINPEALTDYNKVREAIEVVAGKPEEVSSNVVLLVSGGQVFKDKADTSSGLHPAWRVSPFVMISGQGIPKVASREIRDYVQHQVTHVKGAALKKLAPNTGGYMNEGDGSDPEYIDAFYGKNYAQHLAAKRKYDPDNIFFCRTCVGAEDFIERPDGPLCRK

MtVAO615 = target: T2, MtVAO615 (Thermothelomyces thermophilus, UniProt G2QDQ9); assay: X-ray crystal structure ([…] and […] Å); type: binding; settings: covalent; bicovalent 6-S-cysteinyl (Cys222) and 8alpha-N1-histidyl (His157) FAD; crystals at pH 7.5 and pH 5.0
T2 construct: gene MYCTH_2305637; mature secreted protein, signal peptide (first 26 residues) removed; homologous expression in M. thermophila C1; N-glycosylated; bicovalent FAD (His157, Cys222); predicted 60 kDa, about 70 kDa on SDS-PAGE
T2 sequence (G2QDQ9 27-574): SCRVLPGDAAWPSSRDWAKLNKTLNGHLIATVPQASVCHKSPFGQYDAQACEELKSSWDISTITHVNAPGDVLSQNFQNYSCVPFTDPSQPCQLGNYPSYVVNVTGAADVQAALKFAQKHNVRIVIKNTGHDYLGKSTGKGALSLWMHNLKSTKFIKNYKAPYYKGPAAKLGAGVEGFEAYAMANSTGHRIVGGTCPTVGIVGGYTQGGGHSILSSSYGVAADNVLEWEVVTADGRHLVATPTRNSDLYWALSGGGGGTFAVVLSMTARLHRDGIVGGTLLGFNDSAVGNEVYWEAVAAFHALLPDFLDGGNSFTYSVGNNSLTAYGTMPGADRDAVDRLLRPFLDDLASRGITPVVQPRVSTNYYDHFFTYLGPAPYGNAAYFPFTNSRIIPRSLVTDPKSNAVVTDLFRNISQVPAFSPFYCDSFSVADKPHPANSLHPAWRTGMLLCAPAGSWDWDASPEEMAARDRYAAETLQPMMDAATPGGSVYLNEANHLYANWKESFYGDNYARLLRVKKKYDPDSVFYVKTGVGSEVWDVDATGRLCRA

SMILES | GC/MS of conversion to 12-ketooleic acid (MtVAO713) | X-ray crystal structure (2.0 and 2.2 Å) (MtVAO615)
CCCCCC[C@@H](O)C/C=C\CCCCCCCC(=O)O [ricinoleic acid] | The conversion of ricinoleic acid by MtVAO713 was confirmed by GC/MS analysis | –
Cc1cc2nc3c(=O)[nH]c(=O)nc-3n(C[C@H](O)[C@H](O)[C@H](O)COP(=O)(O)OP(=O)(O)OC[C@H]3O[C@@H](n4cnc5c(N)ncnc54)[C@H](O)[C@@H]3O)c2cc1C [FAD] | – | MtVAO615 harbors a bicovalently linked 6-S-cysteinyl-8α-N1-histidyl FAD
